Data from patent publication US20040138199A1, “Benzoxazines and derivatives thereof as therapeutic agents” (priority 2002, published 2004).

Each compound was assayed against T1, p101/p110γ protein (PI3Kγ) (Homo sapiens, UniProt P48736) (assay: PI3Kγ In Vitro Kinase Assay). Details: purified recombinant p101/p110γ with G protein β1/γ2 subunits; 20 μM ATP, 25 μM PIP2; 20 minutes at room temperature; radioactive PIP3 readout.
T1 construct: HA; made in house; host or cells: Spodoptera frugiperda (Sf9) cells, baculovirus coinfection
T1 sequence (P48736 whole entry, species assumed): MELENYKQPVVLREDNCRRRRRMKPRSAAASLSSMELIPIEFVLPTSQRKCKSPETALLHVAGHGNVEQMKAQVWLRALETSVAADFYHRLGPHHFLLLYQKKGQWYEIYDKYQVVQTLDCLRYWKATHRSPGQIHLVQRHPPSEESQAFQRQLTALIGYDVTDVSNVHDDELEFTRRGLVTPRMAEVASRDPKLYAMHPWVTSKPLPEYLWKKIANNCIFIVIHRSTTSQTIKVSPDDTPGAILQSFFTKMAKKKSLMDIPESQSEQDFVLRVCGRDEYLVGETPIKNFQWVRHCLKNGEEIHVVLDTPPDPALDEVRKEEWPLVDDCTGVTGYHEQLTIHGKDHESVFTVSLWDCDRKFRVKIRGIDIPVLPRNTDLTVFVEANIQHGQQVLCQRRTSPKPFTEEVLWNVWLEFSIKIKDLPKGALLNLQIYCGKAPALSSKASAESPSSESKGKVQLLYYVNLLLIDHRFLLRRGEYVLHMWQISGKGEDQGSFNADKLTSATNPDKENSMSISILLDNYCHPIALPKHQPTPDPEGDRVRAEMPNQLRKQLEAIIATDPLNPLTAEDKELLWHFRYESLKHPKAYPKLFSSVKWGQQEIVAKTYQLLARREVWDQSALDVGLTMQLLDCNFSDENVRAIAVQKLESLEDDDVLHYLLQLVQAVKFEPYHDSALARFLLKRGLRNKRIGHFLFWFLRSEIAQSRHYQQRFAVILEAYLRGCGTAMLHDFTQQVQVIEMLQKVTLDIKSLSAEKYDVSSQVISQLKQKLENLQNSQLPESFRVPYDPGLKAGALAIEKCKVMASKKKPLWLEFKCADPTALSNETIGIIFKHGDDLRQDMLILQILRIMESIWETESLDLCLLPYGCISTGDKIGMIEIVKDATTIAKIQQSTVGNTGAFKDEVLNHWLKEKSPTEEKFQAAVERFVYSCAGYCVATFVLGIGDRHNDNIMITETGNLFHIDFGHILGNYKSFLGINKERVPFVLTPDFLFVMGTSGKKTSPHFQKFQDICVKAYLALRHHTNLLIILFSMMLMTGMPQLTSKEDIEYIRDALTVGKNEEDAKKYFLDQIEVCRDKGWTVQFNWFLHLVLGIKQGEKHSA
T1 sequence (Q8WYR1 whole entry partner, species assumed): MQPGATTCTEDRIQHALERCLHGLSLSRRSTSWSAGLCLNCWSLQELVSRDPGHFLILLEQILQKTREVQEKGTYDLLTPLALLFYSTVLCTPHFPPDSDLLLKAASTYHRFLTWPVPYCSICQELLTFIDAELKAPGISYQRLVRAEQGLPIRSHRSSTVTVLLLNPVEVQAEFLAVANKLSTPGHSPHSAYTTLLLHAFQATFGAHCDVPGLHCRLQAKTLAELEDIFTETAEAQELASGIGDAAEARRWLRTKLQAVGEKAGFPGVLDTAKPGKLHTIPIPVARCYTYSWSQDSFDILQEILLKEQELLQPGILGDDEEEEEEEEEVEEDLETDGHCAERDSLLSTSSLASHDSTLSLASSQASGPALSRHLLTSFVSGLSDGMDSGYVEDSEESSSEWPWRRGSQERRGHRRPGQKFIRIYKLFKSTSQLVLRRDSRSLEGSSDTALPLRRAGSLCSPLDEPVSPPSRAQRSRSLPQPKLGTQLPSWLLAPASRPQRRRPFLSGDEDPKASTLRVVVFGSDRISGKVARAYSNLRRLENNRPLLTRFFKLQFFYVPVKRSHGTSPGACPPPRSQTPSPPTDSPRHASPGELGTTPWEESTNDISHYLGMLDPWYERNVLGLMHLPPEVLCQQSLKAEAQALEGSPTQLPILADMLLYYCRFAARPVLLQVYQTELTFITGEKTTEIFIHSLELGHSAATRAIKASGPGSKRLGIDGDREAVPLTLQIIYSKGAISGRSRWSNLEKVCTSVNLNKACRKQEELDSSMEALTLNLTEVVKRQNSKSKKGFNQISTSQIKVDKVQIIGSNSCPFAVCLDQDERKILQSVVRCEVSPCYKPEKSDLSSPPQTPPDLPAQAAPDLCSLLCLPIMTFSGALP
Format: biochemical
Method: Spodtera frugiperda cells, grown in ESF921 media, were coinfected with baculovirus expressing a glu-tagged […] and baculovirus expressing an HA-tagged p110γ, at a 3:1 ratio of p110 baculovirus to p110γ baculovirus. Sf9 cells were grown to 1×10^7 total cells/mL in 10L bioreactors and harvested 48-72 hours post infection. Samples of infected cells were then tested for expression of p101/p110γ PI3 kinase by immunoprecipitation and Western Blot analysis methods (see below).
To purify PI3Kγ, 4 volumes of room temperature hypotonic lysis buffer (1 mM MgCl2, 1 mM DTT, 5 mM EGTA, 1 mM Pefabloc, 0.5 μM aprotinin, […], 2 μM pepstatin, 5 μM E64, pH 8) per gram of cell paste, was poured onto frozen cell pellets with stirring, then lysed in a nitrogen “bomb” at 400 psi (599HC T316, Parr Instrument Co, Moline, Ill.). NaCl was added to 150 mM, and sodium cholate was added to 1% and mixed for another 45 minutes. The lysates were clarified by centrifugation for 25 minutes at 14,000 rpm. The lysates were then loaded over anti-glu-linked Protein-G Sepaharose beads (Covance Research Products, Richmond, Calif.) using 20 mL resin/50 g cell paste. The column was washed with 15 volumes of wash buffer (1 mM DTT, 0.2 mM EGTA, 1 mM Pefabloc, 0.5 μM aprotinin, 5 μM leupeptin, 2 μM pepstatin, 5 μM E64, 150 mM NaCl, 1% sodium cholate, pH 8). PI3Kγ was eluted with 6 column volumes of wash buffer that contain 100 μg/mL of a peptide that competes for binding of the glu tag. The column fractions with the eluted protein (determined by taking OD280 readings) were collected and dialyzed in 0.2 mM EGTA, 1 mM DTT, 1 mM Pefabloc, 5 μM leupeptin, 0.5% sodium cholate, 150 mM NaCl, and 50% glycerol, pH 8. The fractions were stored at −80° C. until further use.
Spodtera frugiperda cells were coinfected with baculovirus expressing a glu-tagged G protein β1 and baculovirus expressing a […] at a 1:1 ratio of glu-tagged G protein β1 baculovirus to G protein β2 baculovirus. Sf9 cells are grown in 10 L bioreactors and harvested 48-72 hours post infection. Samples of infected cells were tested for G protein β1/β2 expression by Western Blot analysis, as described below. Cell lysates were homogenized and loaded onto a column of glu-tagged beads as in Biological Example 1 and competed off the column with a glu peptide as described in Biological Example 1.
The inhibitory properties of the compounds in Table 1 were assayed in an in vitro PI3K assay. In a 96-well polypropylene plate, each well was spotted with 2 μL of 50 times the desired final concentration of compound in DMSO. Purified recombinant p101/p110γ protein (0.03 μg; ˜2.7 nM) and G protein β1/γ2 subunits (0.09 μg; −57.7 nM) for each reaction was combined in the assay buffer (30 mM HEPES, 100 mM NaCl, 1 mM EGTA, and 1 mM DTT). ATP and [γ-^32P-ATP] (0.09 μCi) were added to this mixture so that the final ATP concentration in the reaction was 20 μM. Lipid micelles were formed by sonicating phosphatidylinositol-4,5-diphosphate (PIP2), phosphatidylethanolamine (PE), and Na-cholate in the assay buffer for 10 minutes, adding MgCL2 and incubating on ice for 20 minutes, for final concentrations of 25 μM PIP2, 300 μM PE, 0.02% Na-cholate, and 10 mM MgCl2 in the reaction. The reactions were started by adding equal volumes lipid and enzyme mixture in a total volume of 50 μL, allowed to run for 20 minutes at room temperature, and stopped with 100 μL 75 mM H3PO4. The lipid product was transferred to a glass fiber filter plate and washed with 75 mM H3PO4 several times. The presence of radioactive lipid product (PIP3) was measured by adding Wallac Optiphase mix to each well and counting in a Wallac 1450 Trilux plate reader (PerkinElmer Life Sciences Inc., Boston, Mass. 02118). The IC50 for each compound tested is reported in μM in Table 1: […]

Structure (SMILES)	IC50 [nM]
O=C1NC(=S)SC1=Cc1ccc2c(c1)N(CCc1ccccc1)CCCO2 [Example 16, 5-(9-Phenethyl-6,7,8,9-tetrahydro-5-oxa-9-aza-benzocyclohepten-2-ylmethylene)-2-thioxo-thiazolidin-4-one]	80
O=C1NC(=S)SC1=Cc1ccc2c(c1)N(C(=O)Oc1ccccc1)CCO2 [Example 17, 6-(4-Oxo-2-thioxo-thiazolidin-5-ylidenemethyl)-2,3-dihydro-1,4-benzoxazine-4-carboxylic acid phenyl ester]	3
Cc1ccc(OC(=O)N2CCOc3ccc(C=C4SC(=S)NC4=O)cc32)cc1 [Example 18, 6-(4-Oxo-2-thioxo-thiazolidin-5-ylidenemethyl)-2,3-dihydro-1,4-benzoxazine-4-carboxylic acid p-tolyl ester]	4
O=C1NC(=S)SC1=Cc1ccc2c(c1)N(C(=O)Cc1ccccc1)CCO2 [Example 19, 5-(4-Phenylacetyl-3,4-dihydro-2H-1,4-benzoxazin-6-ylmethylene)-2-thioxo-thiazolidin-4-one]	55
COc1ccc(CC(=O)N2CCOc3ccc(C=C4SC(=S)NC4=O)cc32)cc1OC [Example 20, 5-{4-[2-(3,4-Dimethoxy-phenyl)-acetyl]-3,4-dihydro-2H-1,4-benzoxazin-6-ylmethylene}-2-thioxo-thiazolidin-4-one]	73
COc1cccc(C(=O)N2CCOc3ccc(C=C4SC(=S)NC4=O)cc32)c1 [Example 21, 5-[4-(3-Methoxy-benzoyl)-3,4-dihydro-2H-1,4-benzoxazin-6-ylmethylene]-2-thioxo-thiazolidin-4-one]	100
COc1cc(C(=O)N2CCOc3ccc(C=C4SC(=S)NC4=O)cc32)cc(OC)c1OC [Example 22, 2-Thioxo-5-[4-(3,4,5-trimethoxy-benzoyl)-3,4-dihydro-2H-1,4-benzoxazin-6-ylmethylene]-thiazolidin-4-one]	4000
Cc1cccc(C(=O)N2CCOc3ccc(C=C4SC(=S)NC4=O)cc32)c1 [Example 23, 5-[4-(3-Methyl-benzoyl)-3,4-dihydro-2H-1,4-benzoxazin-6-ylmethylene]-2-thioxo-thiazolidin-4-one]	101
O=C1NC(=S)SC1=Cc1ccc2c(c1)N(C(=O)c1ccc(-c3ccccc3)cc1)CCO2 [Example 24, 5-[4-(Biphenyl-4-carbonyl)-3,4-dihydro-2H-1,4-benzoxazin-6-ylmethylene]-2-thioxo-thiazolidin-4-one]	560
CC(C)(C)c1ccc(C(=O)N2CCOc3ccc(C=C4SC(=S)NC4=O)cc32)cc1 [Example 25, 5-[4-(4-tert-Butyl-benzoyl)-3,4-dihydro-2H-1,4-benzoxazin-6-ylmethylene]-2-thioxo-thiazolidin-4-one]	245
CCc1ccc(C(=O)N2CCOc3ccc(C=C4SC(=S)NC4=O)cc32)cc1 [Example 26, 5-[4-(4-Ethyl-benzoyl)-3,4-dihydro-2H-1,4-benzoxazin-6-ylmethylene]-2-thioxo-thiazolidin-4-one]	545
CCCCCCc1ccc(C(=O)N2CCOc3ccc(C=C4SC(=S)NC4=O)cc32)cc1 [Example 27, 5-[4-(4-Hexyl-benzoyl)-3,4-dihydro-2H-1,4-benzoxazin-6-ylmethylene]-2-thioxo-thiazolidin-4-one]	2020
N#Cc1ccc(C(=O)N2CCOc3ccc(C=C4SC(=S)NC4=O)cc32)cc1 [Example 28, 4-[6-(4-Oxo-2-thioxo-thiazolidin-5-ylidenemethyl)-2,3-dihydro-1,4-benzoxazine-4-carbonyl]-benzonitrile]	385
O=C1NC(=S)SC1=Cc1ccc2c(c1)N(C(=O)c1ccc3ccccc3c1)CCO2 [Example 29, 5-[4-(Naphthalene-2-carbonyl)-3,4-dihydro-2H-1,4-benzoxazin-6-ylmethylene]-2-thioxo-thiazolidin-4-one]	570
CCC(C(=O)N1CCOc2ccc(C=C3SC(=S)NC3=O)cc21)c1ccccc1 (stereo not drawn) [Example 30, 5-[4-(2-Phenyl-butyryl)-3,4-dihydro-2H-1,4-benzoxazin-6-ylmethylene]-2-thioxo-thiazolidin-4-one]	735
